Assay results reported in patent US10150737B2, “Compounds for controlling arthropods” (priority 2013, dated 2018).

Legend:
[1] = tested on: Lucilia cuprina; assay: Lucilia cuprina test; assay type: in vivo; settings: application rate 100 ppm; L1 larvae; after 2 days
How it was run: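 Mortality (%) of first-instar blowfly larvae, about 20 per vessel, recorded 2 days after exposure to compound-treated minced horsemeat. Compound dissolved in dimethyl sulphoxide, then water-diluted to the desired concentration.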

[2] = tested on: Boophilus microplus; assay: Boophilus microplus - injection test; assay type: in vivo; settings: application rate 20 μg/animal; injection into engorged adult female ticks; after 7 days
How it was run: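 Five engorged adult female cattle ticks each received a 1 μl abdominal injection of compound solution in dimethyl sulphoxide. Fertile egg laying was assessed at 7 days, with doubtful eggs incubated about 42 days until hatch. 0% efficacy means all eggs fertile.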

[3] = tested on: Boophilus microplus Parkhurst strain, SP-resistant; assay: Boophilus microplus - dip test; assay type: in vivo; settings: application rate 100 ppm; dip of engorged adult female ticks; after 7 days
How it was run: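 Compound dissolved in DMSO, diluted with water, and used to fully wet groups of 8-10 engorged female cattle ticks (SP-resistant Parkhurst strain). Fertile egg laying assessed at 7 days, doubtful eggs held ~42 days until hatch; 0% means all eggs fertile.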

[4] = tested on: Ctenocephalides felis; assay: Ctenocephalides felis - in vitro contact tests with adult cat fleas; assay type: in vivo; settings: application rate 5 μg/cm2 (=500 g/ha); after 48 h; fleas dead or moribund
How it was run: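 Efficacy, as percentage of fleas dead or moribund, was scored at 48 h by knocking fleas to the tube base. Exposure was by contact with a dried acetone film of compound at 5 μg/cm^2 area dose; 5–10 adults per tube, room temperature, ambient humidity.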

[5] = tested on: Phaedon cochleariae; assay: Phaedon cochleariae - spray test; assay type: in vivo; settings: larvae on Chinese cabbage leaf discs, after 7 days
How it was run: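 Mortality of mustard beetle larvae was scored as % at day 7 on Brassica pekinensis leaf discs. Discs had been treated by spraying at the desired concentration, using an acetone/dimethylformamide solution diluted in water with 1000 ppm alkylaryl polyglycol ether, and dried before larvae were added.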

[6] = tested on: Amblyomma hebraeum; assay: Amblyomma hebaraeum test (tick nymphs, immersion); assay type: in vivo; settings: application rate 100 ppm; tick nymphs immersed one minute; after 42 days
Protocol: Solvent: dimethyl sulphoxide
To produce an appropriate active ingredient formulation, 10 mg of active ingredient are mixed with 0.5 ml of dimethyl sulphoxide, and the concentrate is diluted with water to the desired concentration.
Tick nymphs (Amblyomma hebraeum) are placed into perforated plastic beakers and immersed in the desired concentration for one minute. The ticks are transferred on filter paper into a Petri dish and stored in a climate-controlled cabinet.
After 42 days, the kill in % is determined. 100% means that all of the ticks have been killed; 0% means that none of the ticks have been killed.

[7] = tested on: Spodoptera frugiperda; assay: Spodoptera frugiperda - spray test; assay type: in vivo; settings: caterpillars on maize leaf discs, after 7 days
How it was run: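 Percent mortality of Spodoptera frugiperda caterpillars scored 7 days after placing them on dried maize leaf discs sprayed at the desired concentration. Spray formulation: compound dissolved in acetone/dimethylformamide, made up with water containing 1000 ppm emulsifier.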

[8] = tested on: Ctenocephalides felis; assay: Ctenocephalides felis - oral test; assay type: in vivo; settings: application rate 100 ppm in citrated cattle blood; after 2 days
How it was run: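 Roughly 20 unfed adult C. felis imbibe compound-dosed citrated cattle blood (DMSO formulation) across parafilm from a cylinder above their gauze chamber; percentage mortality recorded at day 2.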

[9] = tested on: Musca domestica; assay: Musca domestica test; assay type: in vivo; settings: application rate 100 ppm; adult houseflies; after 2 days
How it was run: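 First, 10 mg compound was taken up in 0.5 ml DMSO and then brought with water to the required concentration. This was applied with sugar solution to a sponge in vessels holding 10 adult flies; kill was assessed after 2 days.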

[10] = tested on: Tetranychus urticae; assay: Tetranychus urticae - spray test, OP-resistant; assay type: in vivo; settings: bean leaf discs, after 6 days
How it was run: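 Mortality (%) read on day 6 after spraying Phaseolus vulgaris leaf discs carrying all mite stages with formulations at the desired concentration. Formulation: active ingredient in acetone plus dimethylformamide, made up with emulsifier-containing water (1000 ppm alkylaryl polyglycol ether).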

[11] = logP determination by HPLC on a reversed-phase column (C18); assay type: physicochemical; settings: for logP^a): HPLC-MS method a); for log P: HPLC-MS; for logP: HPLC, C18 reversed phase, acetonitrile/water with formic acid, EEC Directive 79/831 Annex V.A8
[12] = tested on: Myzus persicae; assay: Myzus persicae - spray test; assay type: in vivo; settings: Chinese cabbage leaf discs, after 6 days
How it was run: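 Mortality of the green peach aphid, as % killed, was read 6 days after spraying infested Brassica pekinensis leaf discs. Compound formulated in acetone/dimethylformamide and made up with emulsifier-containing (1000 ppm) water.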

[13] = tested on: Rhipicephalus sanguineus; assay: Rhipicephalus sanguineus - in vitro contact tests with adult brown dog ticks; assay type: in vivo; settings: application rate 5 μg/cm2; after 48 h; ticks dead or moribund
Protocol: For the coating of the test tubes, 9 mg of active ingredient are first dissolved in 1 ml of acetone p.a. and then diluted to the desired concentration with acetone p.a. 250 μl of the solution are distributed homogeneously on the inner walls and base of a 25 ml test tube by turning and rocking on an orbital shaker (rocking rotation at 30 rpm for 2 h). With 900 ppm active ingredient solution and internal surface 44.7 cm^2, given homogeneous distribution, an area-based dose of 5 μg/cm^2 is achieved.
After the solvent has evaporated off, the tubes are populated with 5-10 adult dog ticks (Rhipicephalus sanguineus), sealed with a perforated plastic lid and incubated in a horizontal position in the dark at room temperature and ambient humidity. After 48 h, efficacy is determined. To this end, the ticks are knocked to the floor of the tube and incubated on a hotplate at 45-50° C. for not more than 5 min. Ticks which remain motionless on the floor or move in such an uncoordinated manner that they are unable to deliberately avoid the heat by climbing upwards are considered to be dead or moribund.
An efficacy of 100% means that all the ticks were dead or moribund. 0% efficacy means that none of the ticks had been harmed.

[14] = reversed-phase column (C18), Table I-T3

Row | Structure (SMILES) | efficacy (kill) [1] | efficacy (laying of fertile eggs) [2] | efficacy (laying of fertile eggs) [3] | efficacy [4] | efficacy ([5]; application rate 500 g/ha) | efficacy (kill) [6] | efficacy ([7]; application rate 500 g/ha) | efficacy (kill) [8] | efficacy (kill) [9] | efficacy ([10]; application rate 100 g/ha) | logP^a) ([11]; reversed-phase column (C18)) | log P [11, 14] | efficacy [13] | efficacy ([5]; application rate 100 g/ha) | efficacy ([7]; application rate 100 g/ha) | efficacy ([12]; application rate 100 g/ha) | logP^a) [11] | also measured
1 | Cc1cc(C(F)(C(F)(F)F)C(F)(F)F)cc(C(F)(F)F)c1-n1cc(-c2cnc(Cl)c(C(=O)N(C)C3(C#N)CC3)c2)cn1 [I-T3-111] | 100% | 100% | 98% | 100% | 100% | 80% | 100% | 100% | 100% | 90% | 4.4 | 4.4 |  |  |  |  |  | 
2 | Cc1cc(C(F)(C(F)(F)F)C(F)(F)F)cc(C(F)(F)F)c1-n1cc(-c2cnc(Cl)c(C(=O)N(C)C3CC3)c2)cn1 [I-T3-107] | 100% | 100% | 100% | 100% | 100% | 100% | 100% | 100% | 100% |  | 4.5 | 4.5 |  |  |  |  |  | efficacy ([10]; application rate 500 g/ha): 100%; efficacy ([12]; application rate 500 g/ha): 100%
3 | Cc1cc(C(F)(C(F)(F)F)C(F)(F)F)cc(C)c1-n1cc(-c2cnc(Cl)c(C(=O)N(C)C3(C#N)CC3)c2)cn1 [I-T3-103] | 100% | 100% | 100% | 100% | 100% | 90% | 100% | 100% | 100% |  | 4.3 | 4.3 |  |  |  |  |  | efficacy ([10]; application rate 500 g/ha): 100%; efficacy ([12]; application rate 500 g/ha): 90%
4 | Cc1cc(C(F)(C(F)(F)F)C(F)(F)F)cc(C(F)(F)F)c1-c1cc(-c2ccc(Cl)c(C(=O)NC3(C#N)CC3)c2)on1 [I-T22-7] | 100% | 100% | 100% | 100% |  |  |  | 100% | 100% | 100% |  |  | 100% | 100% | 100% | 100% |  | logP [11]: 4.7
5 | CN(C(=O)c1cc(-c2cnn(-c3c(Cl)cc(C(F)(C(F)(F)F)C(F)(F)F)cc3Cl)c2)cnc1Cl)C1(C#N)CC1 [I-T3-102] | 100% | 100% | 100% | 100% | 100% | 90% | 100% | 100% | 100% |  | 4.3 | 4.3 |  |  |  |  |  | efficacy ([10]; application rate 500 g/ha): 90%
6 | Cc1cc(C(F)(C(F)(F)F)C(F)(F)F)cc(C(F)(F)F)c1-c1cc(-c2ccc(Cl)c(C(=O)NC3CC3)c2)on1 [I-T22-5] | 100% | 100% | 100% | 100% |  |  |  | 100% | 100% | 100% |  |  | 100% | 100% | 100% | 100% |  | logP [11]: 4.9
7 | Cc1cc(C(F)(C(F)(F)F)C(F)(F)F)cc(Br)c1-n1cc(-c2ccc(Cl)c(C(=O)NC3CC3)c2)cn1 [I-T3-86] | 100% | 100% | 100% | 100% |  | 100% |  | 100% | 100% | 100% |  |  |  | 100% | 100% |  | 4.5 | logP^a) [11, 14]: 4.5
8 | Cc1cc(C(F)(C(F)(F)F)C(F)(F)F)cc(I)c1-n1cc(-c2ccc(Cl)c(C(=O)NC3(C#N)CC3)c2)cn1 [I-T3-176] | 100% | 100% | 100% | 100% |  |  |  | 100% | 100% | 100% |  | 4.4 | 100% | 100% | 100% | 100% |  | 
9 | N#CC1(NC(=O)c2cc(-c3cnn(-c4c(Cl)cc(C(F)(F)F)cc4Cl)c3)cnc2Cl)CC1 [I-T3-95] |  | 100% | 100% | 100% |  | 100% |  | 100% |  | 100% |  | 3.1 |  | 100% | 100% | 90% | 3.1 | 
10 | CCc1cc(C(F)(F)C(F)(F)F)cc(C)c1-n1cc(-c2ccc(Cl)c(C(=O)NC3(C#N)CC3)c2)cn1 [I-T3-80] | 100% | 100% | 80% | 100% |  |  |  | 100% | 100% | 100% |  |  | 80% | 100% | 100% | 90% | 4.2 | logP^a) [11, 14]: 4.2
11 | Cc1ncc(-c2cnn(-c3c(Cl)cc(C(F)(C(F)(F)F)C(F)(F)F)cc3C(F)(F)F)c2)cc1C(=O)NC1(C#N)CC1 [I-T3-125] | 100% | 100% | 100% | 100% |  | 100% |  | 100% | 100% | 100% | 3.8 | 3.8 |  |  | 100% | 100% |  | 
12 | N#CC1(NC(=O)c2cc(-c3cnn(-c4c(Cl)cc(C(F)(C(F)(F)F)C(F)(F)F)cc4C(F)(F)F)c3)ccc2Cl)CC1 [I-T3-57] | 100% | 100% | 100% | 100% |  | 100% |  | 100% | 100% | 100% |  |  |  | 100% | 100% |  | 4.3 | logP^a) [11, 14]: 4.3
